Data taken from ChEMBL document CHEMBL3885861, “Open TG-GATES”.

Species: Rattus norvegicus
Assay: Open TG-GATES - Regimen: Daily Repeat
Assay type: toxicity, organism-based, Sprague-Dawley
Design: regimen Daily Repeat, gender Male, age 6 weeks
Conditions: in vivo, po, route gavage; for gamma-GTP / ALP / ALT / AST / BUN / CRE / Ca / Cl / DBIL / GLC / IP / K / LDH / Na / PL / RALB / TBIL / TC / TG / TP: tissue Plasma; for APTT / Bas / Eos / Fbg / Hb / Ht / Lym / MCH / MCHC / MCV / Mono / Neu / PT / Plat / RBC / Ret / WBC: tissue Blood; for KIDNEY_L / KIDNEY_R / KIDNEY_TOTAL: tissue Kidney; for LIVER: tissue Liver
[1] = 300 mg/kg, 72 h, dose level Middle, time 3 day
[2] = 300 mg/kg, […], dose level Middle, time 7 day
[3] = 300 mg/kg, […], dose level Middle, time 14 day
[4] = 300 mg/kg, […], dose level Middle, time 28 day

COC(=O)C1=C(C)NC(C)=C(C(=O)OC)C1c1ccccc1[N+](=O)[O-] [NIFEDIPINE]
gamma-GTP (100 mg/kg, […], dose level Low, time 28 day): 1 IU/L
TERMINAL_BW [1]: 223.2 g
APTT [1]: 18.7 s
Bas [1]: 0.4%
Eos [1]: 1%
Fbg [1]: 277 mg/dL
Hb [1]: 13.5 g/dL
Ht [1]: 41.7%
Lym [1]: 73%
MCH [1]: 21.3 pg
MCHC [1]: 32.3%
MCV [1]: 66.1 fL
Mono [1]: 3.6%
Neu [1]: 21%
PT [1]: 13.8 s
Plat [1]: 123.7 x10_4/uL
RBC [1]: 630.8 x10_4/ul
Ret [1]: 10.7%
WBC [1]: 113.4 x10_2/uL
KIDNEY_L [1]: 0.9 g
KIDNEY_R [1]: 0.9 g
KIDNEY_TOTAL [1]: 1.9 g
LIVER [1]: 11.7 g
ALP [1]: 1580.8 IU/L
ALT [1]: 48.2 IU/L
AST [1]: 68.4 IU/L
BUN [1]: 14.2 mg/dL
CRE [1]: 0.2 mg/dL
Ca [1]: 10.9 mg/dL
Cl [1]: 107.2 meq/L
DBIL [1]: 0.018 mg/dL
GLC [1]: 165.8 mg/dL
IP [1]: 7.1 mg/dL
K [1]: 4 meq/L
LDH [1]: 84.2 IU/L
Na [1]: 144.4 meq/L
PL [1]: 159.2 mg/dL
RALB [1]: 2.6 g/dL
TBIL [1]: 0.03 mg/dL
TC [1]: 89.4 mg/dL
TG [1]: 94.2 mg/dL
TP [1]: 5.6 g/dL
gamma-GTP [1]: 1 IU/L
TERMINAL_BW [2]: 254 g
TERMINAL_BW [3]: 319.9 g
TERMINAL_BW [4]: 380.8 g
APTT [2]: 15.7 s
Bas [2]: 0.2%
Eos [2]: 1%
Fbg [2]: 292.6 mg/dL
Hb [2]: 13.9 g/dL
Ht [2]: 42.7%
Lym [2]: 69.4%
MCH [2]: 20.7 pg
MCHC [2]: 32.6%
MCV [2]: 63.6 fL
Mono [2]: 3%
Neu [2]: 26%
PT [2]: 13.6 s
Plat [2]: 128.9 x10_4/uL
RBC [2]: 671 x10_4/ul
Ret [2]: 6.2%
WBC [2]: 113.1 x10_2/uL
APTT [3]: 19 s
Bas [3]: 0%
Eos [3]: 1%
Fbg [3]: 281.4 mg/dL
Hb [3]: 14.8 g/dL
Ht [3]: 44.7%
Lym [3]: 74.8%
MCH [3]: 20.6 pg
MCHC [3]: 33.2%
MCV [3]: 62.1 fL
Mono [3]: 3%
Neu [3]: 20%
PT [3]: 14 s
Plat [3]: 117.6 x10_4/uL
RBC [3]: 719 x10_4/ul
Ret [3]: 4.9%
WBC [3]: 97.5 x10_2/uL
APTT [4]: 18.7 s
Bas [4]: 0.4%
Eos [4]: 1%
Fbg [4]: 277 mg/dL
Hb [4]: 13.5 g/dL
Ht [4]: 41.7%
Lym [4]: 73%
MCH [4]: 21.3 pg
MCHC [4]: 32.3%
MCV [4]: 66.1 fL
Mono [4]: 3.6%
Neu [4]: 21%
PT [4]: 13.8 s
Plat [4]: 123.7 x10_4/uL
RBC [4]: 630.8 x10_4/ul
Ret [4]: 10.7%
WBC [4]: 113.4 x10_2/uL
KIDNEY_L [2]: 1 g
KIDNEY_R [2]: 1 g
KIDNEY_TOTAL [2]: 2 g
KIDNEY_L [3]: 1.2 g
KIDNEY_R [3]: 1.2 g
KIDNEY_TOTAL [3]: 2.3 g
KIDNEY_L [4]: 1.3 g
KIDNEY_R [4]: 1.2 g
KIDNEY_TOTAL [4]: 2.5 g
LIVER [2]: 12.8 g
LIVER [3]: 14.9 g
LIVER [4]: 15.8 g
ALP [2]: 1439.4 IU/L
ALT [2]: 43.8 IU/L
AST [2]: 68.6 IU/L
BUN [2]: 15.4 mg/dL
CRE [2]: 0.2 mg/dL
Ca [2]: 10.8 mg/dL
Cl [2]: 107.6 meq/L
DBIL [2]: 0.012 mg/dL
GLC [2]: 167 mg/dL
IP [2]: 7 mg/dL
K [2]: 3.9 meq/L
Na [2]: 145.6 meq/L
PL [2]: 154.4 mg/dL
RALB [2]: 2.8 g/dL
TBIL [2]: 0.022 mg/dL
TC [2]: 83.4 mg/dL
TG [2]: 102 mg/dL
TP [2]: 5.9 g/dL
gamma-GTP [2]: 1 IU/L
ALP [3]: 1236.4 IU/L
ALT [3]: 47.6 IU/L
AST [3]: 69.4 IU/L
BUN [3]: 18.2 mg/dL
CRE [3]: 0.2 mg/dL
Ca [3]: 10.9 mg/dL
Cl [3]: 107.6 meq/L
DBIL [3]: 0.012 mg/dL
GLC [3]: 172.6 mg/dL
IP [3]: 7 mg/dL
K [3]: 4.2 meq/L
LDH [3]: 48 IU/L
Na [3]: 143.8 meq/L
PL [3]: 150 mg/dL
RALB [3]: 2.7 g/dL
TBIL [3]: 0.018 mg/dL
TC [3]: 79.6 mg/dL
TG [3]: 115.8 mg/dL
TP [3]: 5.8 g/dL
gamma-GTP [3]: 1 IU/L
ALP [4]: 1129.6 IU/L
ALT [4]: 40 IU/L
AST [4]: 73.8 IU/L
BUN [4]: 17.8 mg/dL
CRE [4]: 0.3 mg/dL
Ca [4]: 10.3 mg/dL
Cl [4]: 106.6 meq/L
DBIL [4]: 0.012 mg/dL
GLC [4]: 165 mg/dL
IP [4]: 5.7 mg/dL
K [4]: 3.8 meq/L
LDH [4]: 56.2 IU/L
Na [4]: 143.8 meq/L
PL [4]: 146 mg/dL
RALB [4]: 2.7 g/dL
TBIL [4]: 0.026 mg/dL
TC [4]: 73 mg/dL
TG [4]: 126.8 mg/dL
